The text below walks through data of US11247987B2, “Inhibiting ubiquitin specific peptidase 30” (FORMA Therapeutics, Inc., priority 2017, dated 2022).

Usually IC50 stands for the concentration that inhibits the measured activity by half.

A value given as a limit tells only on which side of the number the result lay.

The test concerns the target T1, human recombinant USP30 (Homo sapiens, UniProt Q70CQ3).
T1 construct: purchased Boston Biochem E-582
T1 sequence (Q70CQ3 1-517): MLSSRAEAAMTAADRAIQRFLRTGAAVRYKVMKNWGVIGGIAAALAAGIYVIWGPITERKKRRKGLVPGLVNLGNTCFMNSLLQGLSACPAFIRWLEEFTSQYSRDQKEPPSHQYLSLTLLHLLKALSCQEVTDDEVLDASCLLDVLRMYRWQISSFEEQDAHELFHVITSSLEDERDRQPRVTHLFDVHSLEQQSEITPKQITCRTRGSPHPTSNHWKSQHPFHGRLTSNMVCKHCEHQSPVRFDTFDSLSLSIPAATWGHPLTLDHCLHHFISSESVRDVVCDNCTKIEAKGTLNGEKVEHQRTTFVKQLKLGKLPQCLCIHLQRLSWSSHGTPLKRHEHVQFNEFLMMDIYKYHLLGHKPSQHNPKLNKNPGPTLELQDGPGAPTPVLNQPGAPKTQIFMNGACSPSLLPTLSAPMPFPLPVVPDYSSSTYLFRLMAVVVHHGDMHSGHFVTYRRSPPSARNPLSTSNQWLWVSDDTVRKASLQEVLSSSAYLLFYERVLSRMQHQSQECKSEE
Kind of test: Ubiquitin-Rhodamine 110 Assay for USP30 Activity (USP30 Inhibitor Biochemical Assay). The settings on record: 0.2 nM USP30, 25 nM Ub-Rh110, 30 min preincubation, 30 min at room temperature; read-out: USP30 potency range (USP30 biochemical IC50 assay, IC50 ranges). The method, boiled down:
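Human recombinant USP30 (0.2 nM final) was preincubated 30 min with compound (25 μM to 1.3 nM, 10-point) in Tris pH 8.0, 1 mM GSH, BGG and Triton X-100. Ub-Rh110 was then added for 30 min at room temperature and stopped with citric acid. Fluorescence at 485/535 nm gave % inhibition and a 4-parameter IC50 fit.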
For the compound `CC(C)(C)c1cnc(NC(=O)[C@H]2C[C@@H](NC#N)C2)s1` [Compound 5-10, cis-N-(5-tert-butyl-1,3-thiazol-2-yl)-3-(cyanoamino)cyclobutane-1-carboxamide], the IC50 lay within 10000 to 25000 nM. The same measure for `N#CN[C@H]1C[C@H]1C(=O)Nc1ncc(C2CCCCC2)s1` (relative stereo) [Compound 11-2, cis-2-(cyanoamino)-N-(5-cyclohexyl-1,3-thiazol-2-yl)cyclopropane-1-carboxamide]: 1000 to 10000 nM. With `N#CN[C@H]1CCC[C@@H]1C(=O)Nc1ncc(C2CCCCC2)s1` [Compound 10-9, (1S,2S)-2-(cyanoamino)-N-(5-cyclohexyl-1,3-thiazol-2-yl)cyclopentane-1-carboxamide], the IC50 lay within 1000 to 10000 nM. The same measure for `N#CN[C@H]1C[C@](F)(C(=O)Nc2cc(-c3ccc(C(F)(F)F)cc3)n[nH]2)C1` [Compound 1-56, (1s,3s)-3-(cyanoamino)-1-fluoro-N-{3-[4-(trifluoro-methyl)phenyl]-1H-pyrazol-5-yl}cyclobutane-1-carboxamide]: 100 to 1000 nM; for `N#CN[C@H]1C[C@@H](C(=O)Nc2ccc3c(c2)CCC3)C1` [Compound 5-9, cis-3-(cyanoamino)-N-(2,3-dihydro-1H-inden-5-yl)cyclobutane-1-carboxamide]: 1000 to 10000 nM; for `N#CN[C@H]1C[C@H](C(=O)Nc2nc(C(F)(F)F)c(C3CCCCC3)s2)C1` [Compound 1-31, (1r,3r)-3-(cyanoamino)-N-[5-cyclohexyl-4-(trifluoromethyl)-1,3-thiazol-2-yl]cyclobutane-1-carboxamide]: below 100 nM. The same measure for `Cn1cc(-c2ccc(-c3cc(C(=O)N[C@H]4C[C@@H](NC#N)C4)on3)cc2)cn1` [Compound 3-3, 3-[4-(1-methyl-1H-pyrazol-4-yl)phenyl]-N-[(1s,3s)-3-(cyanoamino)cyclobutyl]-1,2-oxazole-5-carboxamide]: 100 to 1000 nM; for `N#CN[C@H]1C[C@H](C(=O)Nc2ncc([C@@H]3CCCC[C@@H]3C(F)(F)F)s2)C1` [Compound 1-33, (1r,3r)-3-(cyanoamino)-N-{5-[(1R,2S)-2-(trifluoromethyl)cyclo-hexyl]-1,3-thiazol-2-yl}cyclobutane-1-carboxamide]: 100 to 1000 nM. The same measure for `N#CN[C@H]1C[C@H](C(=O)Nc2sc(C3CCCCC3)nc2F)C1` [Compound 1-17, (1r,3r)-3-(cyanoamino)-N-(2-cyclohexyl-4-fluoro-1,3-thiazol-5-yl)cyclobutane-1-carboxamide]: 100 to 1000 nM; for `N#CN[C@H]1C[C@H](C(=O)Nc2ncc([C@H]3CCCC[C@H]3C(F)(F)F)s2)C1` [Compound 1-32, (1r,3r)-3-(cyanoamino)-N-{5-[(1S,2R)-2-(trifluoromethyl)cyclo-hexyl]-1,3-thiazol-2-yl}cyclobutane-1-carboxamide]: 100 to 1000 nM; for `Cn1nc(NC(=O)[C@H]2C[C@H](NC#N)C2)cc1C1CCCCC1` [Compound 1-30, (1r,3r)-3-(cyanoamino)-N-(5-cyclohexyl-1-methyl-1H-pyrazol-3-yl)cyclobutane-1-carboxamide]: 100 to 1000 nM.

For `N#CN[C@H]1C[C@H](C(=O)Nc2ccc3c(c2)CCC3)C1` [Compound 5-12, trans-3-(cyanoamio)-N-(2,3-dihydro-1H-inden-5-yl)cyclobutane-1-carboxamide], the IC50 fell in the range of 1000 to 10000 nM. As to `N#CN[C@@H]1CC[C@@H](C(=O)Nc2ncc(C3CCOCC3)s2)C1` [Compound 10-11, (1R,3R)-3-(cyanoamino)-N-[5-(oxan-4-yl)-1,3-thiazol-2-yl]cyclopentane-1-carboxamide], the IC50 fell in the range of 10000 to 25000 nM.

In the case of `Cc1nc(C2CCCCC2)sc1NC(=O)[C@H]1C[C@H](NC#N)C1` [Compound 1-7, (1r,3r)-3-(cyanoamino)-N-(2-cyclohexyl-4-methyl-1,3-thiazol-5-yl)cyclobutane-1-carboxamide], the half-inhibitory concentration (IC50) is 100 to 1000 nM. The same measure for `N#CN[C@H]1CCC[C@H]1C(=O)Nc1ncc(C2CCCCC2)s1` [Compound 10-7, (1R,2S)-2-(cyanoamino)-N-(5-cyclohexyl-1,3-thiazol-2-yl)cyclopentane-1-carboxamide]: 1000 to 10000 nM. For `N#CN[C@H]1C[C@@H](C(=O)Nc2ncc(C3CCCCC3)s2)C1` [Compound 5-3, cis-3-(cyanoamino)-N-(5-cyclohexyl-1,3-thiazol-2-yl)cyclobutane-1-carboxamide], the IC50 is 1000 to 10000 nM.

For `C[C@]1(C(=O)Nc2cnc(C3CCCCC3)s2)C[C@H](NC#N)C1` [Compound 1-11, (1r,3s)-3-(cyanoamino)-N-(2-cyclohexyl-1,3-thiazol-5-yl)-1-methylcyclobutane-1-carboxamide], the IC50 was below 100 nM. The same measure for `N#CN[C@H]1C[C@H](C(=O)Nc2cc(C(F)(F)F)ccn2)C1` [Compound 1-27, (1r,3r)-3-(cyanoamino)-N-[4-(trifluoro-methyl)pyridin-2-yl]cyclobutane-1-carboxamide]: 100 to 1000 nM; for `N#CN[C@H]1C[C@H](C(=O)Nc2cccc(C(F)(F)F)c2)C1` [Compound 1-73, (1r,3r)-3-(cyanoamino)-N-[3-(trifluoro-methyl)phenyl] cyclobutane-1-carboxamide]: 100 to 1000 nM; for `CC(C)c1ccc(CNC(=O)[C@H]2C[C@H](NC#N)C2)cc1` [Compound 1-70, (1r,3r)-3-(cyanoamino)-N-{[4-(propan-2-yl)phenyl]methyl} cyclobutane-1-carboxamide]: below 100 nM. The same measure for `CC(C)(C)c1cnc(NC(=O)[C@H]2CC[C@@H](NC#N)C2)s1` [Compound 12-7, (1S,3R)-N-(5-tert-butyl-1,3-thiazol-2-yl)-3-(cyanoamino)cyclopentane-1-carboxamide]: 1000 to 10000 nM; for `COCc1nc(NC(=O)[C@H]2C[C@H](NC#N)C2)sc1C1CCCCC1` [Compound 1-16, (1r,3r)-3-(cyanoamino)-N-[5-cyclohexyl-4-(methoxymethyl)-1,3-thiazol-2-yl]cyclobutane-1-carboxamide]: below 100 nM. The same measure for `CC(C)Oc1ccccc1-c1ncc(NC(=O)[C@H]2C[C@H](NC#N)C2)s1` [Compound 1-8, (1r,3r)-3-(cyanoamino)-N-{2-[2-(propan-2-yloxy)phenyl]-1,3-thiazol-5-yl}cyclobutane-1-carboxamide]: 100 to 1000 nM. Turning to `CC(C)(C)c1sc(NC(=O)[C@]2(Cl)C[C@H](NC#N)C2)nc1Cl` (single isomer, unassigned) [Compound 9-2, (1r,3r)-N-(5-tert-butyl-4-chloro-1,3-thiazol-2-yl)-1-chloro-3-(cyanoamino)cyclobutane-1-carboxamide], the IC50 lay within 100 to 1000 nM. Take `N#CN[C@H]1C[C@H](NC(=O)c2ncc(-c3ccccc3)s2)C1` [Compound 3-1, 5-phenyl-N-[(trans)-3-(cyanoamino)cyclobutyl]-1,3-thiazole-2-carboxamide]: the IC50 lay within 1000 to 10000 nM.

In the case of `N#CN[C@H]1C[C@H](C(=O)Nc2nc(-c3cnn(C4CC4)c3)c(C3CCCCC3)s2)C1` [Compound 1-26, (1r,3r)-3-(cyanoamino)-N-[5-cyclohexyl-4-(1-cyclopropyl-1H-pyrazol-4-yl)-1,3-thiazol-2-yl]cyclobutane-1-carboxamide], the IC50 is below 100 nM.

In the case of `N#CN[C@H]1C[C@H](C(=O)Nc2ncc([C@@H]3CCCC[C@H]3C(F)(F)F)s2)C1` (single isomer, unassigned) [Compound 1-35], the IC50 lay in the range of 100 to 1000 nM. The same measure for `CC(C)(C)[C@H]1CC[C@@H](NC(=O)[C@H]2C[C@H](NC#N)C2)CC1` [Compound 1-71, (1r,3r)-3-(cyanoamino)-N-[(1s,4s)-4-tert-butylcyclohexyl]cyclo-butane-1-carboxamide]: 100 to 1000 nM; for `N#CN[C@H]1CC[C@H](C(=O)Nc2ncc(-c3ccccc3)s2)C1` [Compound 12-4, (1S,3S)-3-(cyanoamino)-N-(5-phenyl-1,3-thiazol-2-yl)cyclopentane-1-carboxamide]: 1000 to 10000 nM. The same measure for `N#CN[C@H]1C[C@@H](NC(=O)c2ncc(-c3ccccc3)s2)C1` [Compound 4-1, 5-phenyl-N-[(cis)-3-(cyanoamino)cyclobutyl]-1,3-thiazole-2-carboxamide]: 1000 to 10000 nM; for `N#CN[C@H]1C[C@@H](C(=O)Nc2ncc(-c3ccccc3)s2)C1` [Compound 5-4, cis-3-(cyanoamino)-N-(5-phenyl-1,3-thiazol-2-yl)cyclobutane-1-carboxamide]: 1000 to 10000 nM; for `CN(c1cc(-c2cccc(Cl)c2)no1)C(=O)[C@H]1C[C@H](NC#N)C1` [Compound 1-45, (1r,3r)-N-[3-(3-chlorophenyl)-1,2-oxazol-5-yl]-3-(cyanoamino)-N-methylcyclobutane-1-carboxamide]: 100 to 1000 nM. The same measure for `N#CN[C@H]1CC[C@H](C(=O)Nc2ncc(C3CCCCC3)s2)C1` [Compound 12-3, (1S,3S)-3-(cyanoamino)-N-(5-cyclohexyl-1,3-thiazol-2-yl)cyclopentane-1-carboxamide]: 100 to 1000 nM; for `C[C@H]1CCCC[C@H]1c1cnc(NC(=O)[C@H]2C[C@H](NC#N)C2)s1` [Compound 1-22, (1r,3r)-3-(cyanoamino)-N-{5-[(1R,2S)-2-methylcyclohexyl]-1,3-thiazol-2-yl}cyclobutane-1-carboxamide]: 100 to 1000 nM.
